# Measured values taken from patent US9139581B2 (PORTOLA PHARMACEUTICALS, INC., priority 2008, dated 2015).
# Molecular target: T1, full length active recombinant SYK enzyme (Homo sapiens, UniProt P43405)
# T1 construct: full length active recombinant SYK enzyme (Millipore, Calif.); purchased Millipore
# Assay: Inhibition of Syk tyrosine phosphorylation activity (LANCE TR-FRET)
# Assay type: biochemical
# Details: Table 3; 1 nM SYK, 100 μM ATP; read-out: Syk IC50 code
# Experimental: The in vitro and in vivo human syk activities of the inventive compounds can be determined by various procedures known in the art, such as a test for their ability to inhibit the activity of human plasma syk. […] Inhibition of Syk Tyrosine Phosphorylation Activity Potency of candidate molecules for inhibiting syk tyrosine phosphorylation activity is assessed by measuring the ability of a test compound to inhibit syk-mediated tyrosine phosphorylation of a syk-specific substrate. SYK tyrosine phosphorylation activity is measured using the LANCETM Technology developed by Perkin Elmer Life and Analytical Sciences (Boston, Mass.). LANCETM refers to homogeneous time resolved fluorometry applications using techniques such as time-resolved fluorescence resonance energy transfer assay (TR-FRET) (see generally for procedures in Perkin Elmer Application Note-How to Optimize a Tyrosine Kinase Assay Using Time Resolved Fluorescence-Based LANCE Detection, wwww.perkinelmer.com/lifesciences). The assay principle involves detection of a phosphorylated substrate using energy transfer from a phosphospecific europium-labeled antibody to streptavidin-allophycocyanin as an acceptor. To test the ability of candidate molecules to inhibit SYK tyrosine phosphorylation activity, molecules are reconstituted in 30% DMSO and serially diluted 1:3 with the final dilution containing DMSO in the absence of the candidate molecule. The final DMSO concentration in the assay is 3%. Kinase assays are performed as a two part reaction. The first reaction is a kinase reaction and which comprises of a candidate molecule, full length active recombinant SYK enzyme (Millipore, Calif.) and biotin-labeled SYK-specific substrate biotin-[…]-OH. The second reaction involves termination of the kinase reaction and the simultaneous addition of the detection reagents-europium-labeled anti-phosphotyrosine reagent (Eu-W1024-PY100, Perkin Elmer, Boston, Mass.) and Streptavidin-Allophycocyanin detection reagent (SA-APC, Prozyme, Calif.). The kinase reaction is performed in a black U-bottom 96-well microtitre plate. […] The reaction is allowed to proceed for 1 hour at room temperature. […] The detection reagents are added to the reaction mixture at the following dilutions-1:500 for Eu-W1024-PY100 and 1:250 for SA-APC. The kinase reaction is terminated by the addition of 50 μL quench buffer containing the detection reagents. The detection is allowed to proceed for 1 hr at room temperature. Detection of the phosphorlated substrate in the absence and presence of inhibitors is measured in the TR-FRET instrument, Analyst HT ([…], Sunnyvale, Calif.) and the condition for measurements are set up using CriterionHost Release 2.0 ([…], Sunnyvale, Calif.). […] IC50s were derived by non-linear regression analysis.
row,Compound,IC50 [nM]
1,"CC(=O)N(C)c1ccc(Nc2ncc(F)c(N3CCC(CNC(=O)OC(C)(C)C)CC3)n2)cc1 [Example 28, tert-butyl (1-(5-fluoro-2-(4-(N-methylacetamido)phenylamino)pyrimidin-4-yl)piperidin-4-yl)methylcarbamate]",> 1000
2,"NC(=O)CNS(=O)(=O)c1ccc(Nc2nc(NC3CCC3)c3cc[nH]c3n2)cc1 [Example 54, 2-(4-(4-(cyclobutylamino)-7H-pyrrolo[2,3-d]pyrimidin-2-ylamino)phenylsulfonamido)acetamide]",10 to 100
3,"N#CCC(=O)N1CCC(Nc2nc(Nc3ccc(C(N)=O)cc3)nc3[nH]ccc23)CC1 [Example 109, 4-(4-(1-(2-cyanoacetyl)piperidin-4-ylamino)-7H-pyrrolo[2,3-d]pyrimidin-2-ylamino)benzamide]",> 1000
4,"CC(C)(CN)CNc1nc(Nc2ccc3cn[nH]c3c2)nc2[nH]ccc12 [Example 60, N4-(3-amino-2,2-dimethylpropyl)-N2-(1H-indazol-6-yl)-7H-pyrrolo[2,3-d]pyrimidine-2,4-diamine]",> 1000
5,"COC(=O)C(N)C1CCN(c2nc(Nc3ccc4c(c3)CCC(=O)N4)ncc2F)CC1 (stereo not drawn) [Example 135, Methyl 2-amino-2-(1-(5-fluoro-2-(2-oxo-1,2,3,4-tetrahydroquinolin-6-ylamino)pyrimidin-4-yl)piperidin-4-yl)acetate]",> 1000
6,"CN(CC(=O)O)S(=O)(=O)c1ccc(Nc2nc(NC3CCC3)c3cc[nH]c3n2)cc1 [Example 55, 2-(4-(4-(cyclobutylamino)-7H-pyrrolo[2,3-d]pyrimidin-2-ylamino)-N-methylphenylsulfonamido)acetic acid]",10 to 100
7,"CC(=O)N1CCN(c2ccc(Nc3nc(NC4CC4)c4c(-c5ccncc5)c[nH]c4n3)cc2)CC1 [Example 4, 1-(4-(4-(4-(cyclopropylamino)-5-(pyridin-4-yl)-7H-pyrrolo[2,3-d]pyrimidin-2-ylamino)phenyl)piperazin-1-yl)ethanone]",10 to 100
8,"CC(=O)N1CCN(c2ccc(Nc3ncc(F)c(N4CCN(C(N)=O)CC4)n3)cc2)CC1 [Example 125, 4-(2-(4-(4-acetylpiperazin-1-yl)phenylamino)-5-fluoropyrimidin-4-yl)piperazine-1-carboxamide]",> 1000
9,"COc1ccc(Nc2nc(Nc3ccc4c(c3)CCC(=O)N4)nc3[nH]cc(C#N)c23)cc1 [Example 111, 4-(4-methoxyphenylamino)-2-(2-oxo-1,2,3,4-tetrahydroquinolin-6-ylamino)-7H-pyrrolo[2,3-d]pyrimidine-5-carbonitrile]",100 to 1000
10,"N[C@H]1CC[C@@H](Nc2nc(Nc3ccc4c(c3)CCC(=O)N4)ncc2-c2ccncc2)CC1 [Example 143, 6-(4-((1s,4s)-4-aminocyclohexylamino)-5-(pyridin-4-yl)pyrimidin-2-ylamino)-3,4-dihydroquinolin-2(1H)-one]",> 1000
11,"CC(=O)N1CCN(c2ccc(Nc3ncc(F)c(N[C@H]4CC[C@@H](N)CC4)n3)cc2)CC1 [Example 142, 1-(4-(4-(4-((1s,4s)-4-aminocyclohexylamino)-5-fluoropyrimidin-2-ylamino)phenyl)piperazin-1-yl)ethanone]",100 to 1000
12,"CN1C(=O)CCc2cc(Nc3nc(NCc4ccccc4)c4c(C#N)c[nH]c4n3)ccc21 [Example 115, 4-(Benzylamino)-2-(1-methyl-2-oxo-1,2,3,4-tetrahydroquinolin-6-ylamino)-7H-pyrrolo[2,3-d]pyrimidine-5-carbonitrile]",100 to 1000

# Same assay, conditions: Table 4; 1 nM SYK, 100 μM ATP; read-out: syk IC50
row,Compound,IC50 [nM]
1,"CC(=O)N(C)c1ccc(Nc2ncc(F)c(N3CCC(CNC(=O)OC(C)(C)C)CC3)n2)cc1 [Example 28, tert-butyl (1-(5-fluoro-2-(4-(N-methylacetamido)phenylamino)pyrimidin-4-yl)piperidin-4-yl)methylcarbamate]",> 1000
2,"NC(=O)C1CCN(c2nc(Nc3ccc(N4CCNCC4)cc3)nc3[nH]ccc23)CC1 [Example 23, 1-(2-(4-(piperazin-1-yl)phenylamino)-7H-pyrrolo[2,3-d]pyrimidin-4-yl)piperidine-4-carboxamide]",> 1000
3,"CC(=O)N1CCN(c2ccc(Nc3ncc(C(N)=O)c(N4CCCN(CCO)CC4)n3)cc2)CC1 [2-(4-(4-acetylpiperazin-1-yl)phenylamino)-4-(4-(2-hydroxyethyl)-1,4-diazepan-1-yl)pyrimidine-5-carboxamide]",100 to 1000
